The experiment addresses T1, androgen receptor (Rattus norvegicus, UniProt P15207).
T1 construct: from tissue; host or cells: ventral prostate cytosol of gonadectomized male Sprague-Dawley rats
T1 sequence (P15207 1-902): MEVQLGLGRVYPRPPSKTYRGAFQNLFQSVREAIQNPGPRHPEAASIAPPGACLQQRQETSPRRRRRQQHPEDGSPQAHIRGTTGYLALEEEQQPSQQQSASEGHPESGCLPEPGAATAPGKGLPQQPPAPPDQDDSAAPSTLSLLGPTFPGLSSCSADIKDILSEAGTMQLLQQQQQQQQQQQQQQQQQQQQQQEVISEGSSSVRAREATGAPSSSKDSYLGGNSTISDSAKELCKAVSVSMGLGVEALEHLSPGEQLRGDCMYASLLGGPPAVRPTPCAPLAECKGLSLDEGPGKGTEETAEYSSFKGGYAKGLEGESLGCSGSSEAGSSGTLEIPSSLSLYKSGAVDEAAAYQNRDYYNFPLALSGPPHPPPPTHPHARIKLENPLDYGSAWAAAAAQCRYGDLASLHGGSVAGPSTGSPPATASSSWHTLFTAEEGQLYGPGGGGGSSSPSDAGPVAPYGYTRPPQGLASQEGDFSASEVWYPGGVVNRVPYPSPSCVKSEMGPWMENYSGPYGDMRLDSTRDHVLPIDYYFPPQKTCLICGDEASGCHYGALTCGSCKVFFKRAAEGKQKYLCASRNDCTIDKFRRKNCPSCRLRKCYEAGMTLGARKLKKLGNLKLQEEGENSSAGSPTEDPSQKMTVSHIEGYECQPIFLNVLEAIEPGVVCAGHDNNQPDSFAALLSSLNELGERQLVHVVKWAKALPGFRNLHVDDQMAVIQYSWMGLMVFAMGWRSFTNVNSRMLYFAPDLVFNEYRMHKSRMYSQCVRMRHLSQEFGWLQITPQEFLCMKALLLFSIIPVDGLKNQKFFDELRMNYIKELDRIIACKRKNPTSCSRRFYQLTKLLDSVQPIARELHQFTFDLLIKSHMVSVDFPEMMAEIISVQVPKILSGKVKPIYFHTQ
Nature of the experiment: Androgen receptor (AR) assay: inhibition of [3H]R1881 binding, prostate cytosol. The protocol: The manner in which the percentage of inhibition is determined is described in “Other Tests; D-Androgen Receptor (AR) Assays”. Lower numbers are desirable.
Male Sprague-Dawley rats (Crl: CD(SD)Br) weighing 200-300 g were obtained from Charles-River Inc. (St-Constant, Québec, Canada). The rats were gonadectomized under general anesthesia (Isoflurane) and killed by cervical dislocation 24 hours later. The ventral prostates were rapidly removed, dissected free from adhering tissue and frozen on dry-ice. Prostates were kept at −80° C. until assay.
All subsequent steps were performed at 0-4° C. Prostates were homogenized in 5 vol (wt/vol) of buffer A (25 mM Tris-HCl, 1.5 mM EDTA disodium salt, 10 mM α-monothioglycerol, 10% glycerol, and 10 mM sodium molybdate, pH 7.4), using a Polytron PT-10 homogenizer (Brinkman Instruments, Canada) at a setting of 5 for three periods of 10 sec, with intervals of 10 sec for cooling. The homogenate was then centrifuged at 105,000×g for 60 min in a Beckman L5-65 ultracentrifuge (Fullerton, Calif.).
Androgen binding was measured using the hydroxylapatite assay (HAP). In brief, the radioactive steroid [^3H]R1881 solubilized in ethanol was diluted into buffer A. Aliquots of prostate cytosol preparation (0.1 ml) were then incubated with 8 nM [^3H]R1881 (0.1 ml, ˜200,000 cpm) in the presence or absence of the indicated concentrations of unlabeled compounds (0.1 ml, prepared in buffer A containing 10% ethanol) for 16-18 h at 0-4° C. […] Unbound steroids were separated by incubation for 40 min at 0-4° C. with 0.3 ml HAP prepared in buffer P (50 mM, Tris-HCl, 10 mM KH2PO4, pH 7.4) as follows: 10 g HAP were washed with buffer P until the supernatant reached a pH of 7.4 and then following centrifugation and decantation of the supernatant, 37.5 ml of buffer P were added. After incubation with HAP and 10 minutes of centrifugation at 1,000×g, the pellet was washed 3 times with 1 ml buffer P. Thereafter, the radioactivity was extracted from the pellet by incubation at room temperature for 60 minutes with 1 ml EtOH. After centrifugation, the supernatant was decanted into a scintillation vial and the pellet was extracted again with ethanol.

SMILES strings stand for the structures. Read-outs that look alike come from different tables or passages of the source.

The inhibition is the percentage by which the read-out fell short of the control.

For `CCCC(=O)O[C@]1(C)C(=O)CCC2C3C=C(C)C4=CC(=O)CC[C@]4(C)C3CC[C@@]21C` (stereo partly shown) [EM-1078], the inhibition at 1 µM (read-out: % Inhibition Androgen Receptor E^−6) is 83%. Also, where the note is “read-out: % Inhibition Androgen Receptor E^−8”, the inhibition at 0.01 µM was 7%.
On to `COc1ccc2c(c1)CCC1C2CCC2(C)C1CCC21CCC(C)(C)C(=O)O1` (stereo not shown) [EM-1370], for which the inhibition at 1 µM (Table 4′, E^−6) turned out to be 2%. Besides, under “Table 4′, E^−8”, the inhibition at 0.01 µM worked out at 3%.
The molecule `CC(C)C[C@@H]1CC2C3C=CC4=CC(=O)CC[C@]4(C)C3CC[C@]2(C)C1=O` (stereo partly shown) [EM-1273-CS] returned an inhibition at 1 µM (E^−6) of 0%. Moreover, for the setting “E^−8”, the inhibition at 0.01 µM was 0%.
Turning to `CCOc1ccc2c(c1)CCC1C2CC[C@@]2(C)C1CC[C@@]21CCC(C)(C)C(=O)O1` (stereo partly drawn) [EM-1369, 3-Ethoxy-1,3,5(10)-estratrien-17(R)-spiro-2′-(5′,5′-dimethyl-6′-oxo)-tetrahydropyran], under “Table 4′, E^−6”, the inhibition at 1 µM was 1%. The same molecule had an inhibition at 0.01 µM (Table 4′, E^−8) of 0%.
Consider `CCCCN(C)C(=O)[C@@]1(OC(C)=O)CCC2C3C=C(C)C4=CC(=O)CC[C@]4(C)C3CC[C@@]21C` (stereo partly shown) [EM-1165], for which the “% Inhibition Androgen Receptor” value runs as follows: (E^−6) 1%; (E^−8) 0%.
The molecule `CN(C)C(=O)c1ccc2c(c1)CCC1C2CCC2(C)C1CCC21CCC(C)(C)C(=O)O1` (stereo not shown) [EM-1403] yielded an inhibition at 1 µM (Table 4′, E^−6) of 0%. Besides, the inhibition at 0.01 µM (Table 4′, E^−8) turned out to be 0%.
As for `CCC[C@@H]1CC2C3C=CC4=CC(=O)CC[C@]4(C)C3CC[C@]2(C)C1=O` (stereo partly shown) [EM-1097], for the setting “E^−6”, at 1 µM the inhibition was 5%. Where the note is “E^−8”, this molecule showed an inhibition at 0.01 µM of 0%.
For the molecule `COCCOc1cc2c(cc1C(F)(F)F)[C@H]1CC[C@@]3(C)[C@@H](CC[C@@]34CCC(C)(C)C(=O)O4)[C@@H]1CC2` [EM-1438, 3-(2′-Methoxyethoxy)-2-trifluoromethyl-1,3,5(10)-estratrien-17(R)-spiro-2′-(5′,5′-dimethyl-6′-oxo)tetrahydropyran], the “% Inhibition Androgen Receptor E^−6” value (Table 4′, E^−6) stood at 10%. The “% Inhibition Androgen Receptor E^−8” value (Table 4′, E^−8) is 0%.
`COCCOc1ccc2c(c1)CCC1C2CCC2(C)C1CCC21CCC(C)(C)C(=O)O1` [EM-1368-CS, 3-Methoxyethoxy-1,3,5(10)-estratrien-17(R)-spiro-2′-(5′,5′-dimethyl-6′-oxo)-tetrahydropyran] registered an inhibition at 1 µM (Table 4′, E^−6) of 0%. Besides, the inhibition at 0.01 µM (Table 4′, E^−8) was found to be 0%.
Molecule `CC1(C)CC[C@@]2(CCC3C4CCc5cc(C(N)=O)ccc5C4CCC32C)OC1=O` (stereo partly shown) [EM-1404] registered an inhibition at 1 µM (Table 4′, E^−6) of 0%. For the same molecule, for the setting “Table 4′, E^−8”, the inhibition at 0.01 µM came to 0%.
`CC(=O)O[C@]1(C(=O)N(C)C)CCC2C3C=C(C)C4=CC(=O)CC[C@]4(C)C3CC[C@@]21C` (stereo partly shown) [EM-1159]: the “% Inhibition Androgen Receptor” value is 1% (E^−6) and 1% (E^−8).
For `CC1(C)CC[C@@]2(CC[C@H]3[C@@H]4CCc5c(cc(Br)c(O)c5Br)[C@H]4CC[C@@]32C)OC1=O` [EM-1382-CS], the “% Inhibition Androgen Receptor E^−6” value (Table 4′, E^−6) turned out to be 0%. Moreover, the “% Inhibition Androgen Receptor E^−8” value (Table 4′, E^−8) is listed as 0%.
As for `COc1c(Br)cc2c(c1Br)CCC1C2CCC2(C)C1CCC21CCC(C)(C)C(=O)O1` (stereo not shown) [EM-1385-CS], the inhibition at 1 µM (Table 4′, E^−6) is 0%. This molecule also gave an inhibition at 0.01 µM (Table 4′, E^−8) of 0%.
`CC12C=CC(=O)C=C1C=CC1C2CCC2(C)C(=O)C3(CCCCC3)CC12` (stereo not shown) [CS-204] had an inhibition at 1 µM (E^−6) of 5%. Moreover, under “E^−8”, testing at 0.01 µM gave an inhibition of 0%.
`COCCOc1cc2c(cc1C(N)=O)C1CC[C@@]3(C)C(CC[C@@]34CCC(C)(C)C(=O)O4)C1CC2` (stereo partly drawn) [EM-1424, 2-Carbamoyl-3-(2″-methoxyethyloxy)-1,3,5(10)-estratrien 17(R)-spiro-2′-(5′,5′-dimethyl-6′-oxo)tetrahydropyran]: the inhibition at 1 µM (Table 4′, E^−6) amounted to 2%. In addition, at 0.01 µM the inhibition (Table 4′, E^−8) was 2%.
For the molecule `CC1(C)CC[C@@]2(CCC3C4CCc5cc6oncc6cc5C4CC[C@@]32C)OC1=O` (stereo partly drawn) [EM-1407-CS, 1,3,5(10)-estratrien-(2,3-oximino)-17(R)-spiro-2′-(5′,5′-dimethyl-6′-oxo)tetrahydropyran], for the setting “Table 4′, E^−6”, 1 µM produced 0% inhibition. This molecule yielded an inhibition at 0.01 µM (Table 4′, E^−8) of 0%.
For the molecule `CC1(C)CCC2(CCC3C4CCc5c(cc(Cl)c(OS(C)(=O)=O)c5Cl)C4CCC32C)OC1=O` (stereo not shown) [EM-1392-CS], the inhibition at 1 µM (Table 4′, E^−6) worked out at 0%. Also, the inhibition at 0.01 µM (Table 4′, E^−8) amounted to 0%.
For `COc1ccc2c(c1)C(=O)CC1C3CCC4(CCC(C)(C)C(=O)O4)C3(C)CCC21O` (stereo not shown) [EM-1386], under “Table 4′, E^−6”, testing at 1 µM gave an inhibition of 0%. Moreover, the inhibition at 0.01 µM (Table 4′, E^−8) came out at 0%.
On to `CC1CCC2(CCC3C4CCc5ccccc5C4CCC32C)OC1=O` (stereo not shown) [EM-1025], for which, for the setting “Table 4′, E^−6”, testing at 1 µM gave an inhibition of 0%. In addition, the inhibition at 0.01 µM (Table 4′, E^−8) is 0%.
Turning to `CC1CCC2(CCC3C4CCc5cc(O)c([N+](=O)[O-])cc5C4CCC32C)OC1=O` [EM-1131, 2-Nitro-1,3,5(10)-estratrien-3-ol-17(R)-spiro-2′-(5′-methyl-6′-oxo)tetrahydropyran], the “% Inhibition Androgen Receptor E^−6” value (Table 4′, E^−6) was found to be 1%. Further, for the setting “Table 4′, E^−8”, the inhibition at 0.01 µM was found to be 2%.

Values taken from patent US6541463B1, “Inhibitors of type 5 and type 3 17β-hydroxysteroid dehydrogenase and methods for their use” (Endorecherche, Inc., priority 1998, dated 2003).
